Source: PubChem BioAssay AID1845208 (Molecular Pharmacology Branch, DTP, NCI, 2023)

Test system: NCI-H196 SCLC complex tumor spheroid viability
Experiment: Anticancer human tumor NCI-H196 cell line growth inhibition;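 note: spheroids exposed to compounds for 7 days before readout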;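 for viability, T/C: 100% = DMSO vehicle control wells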
Details: for IC50: curve of first compound; for viability, T/C: stronger effect = lower value
Summary of the method: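 Single agents and combinations were tested on spheroids built from tumor cells plus HUVEC and hMSC, at half-log dilutions starting at or near clinical Cmax, else 10 microM; final DMSO 0.25% (v/v).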

[1] = second compound 30 pM, first compound 0.0316 µM
[2] = second compound 30 pM, first compound 0.1 µM
[3] = second compound 30 pM, first compound 0.316 µM
[4] = second compound 30 pM, first compound 1 µM
[5] = second compound 30 pM, first compound 3.16 µM
[6] = second compound 30 pM, first compound 10 µM
[7] = second compound 94.9 pM, first compound 0.0316 µM
[8] = second compound 94.9 pM, first compound 0.1 µM
[9] = second compound 94.9 pM, first compound 0.316 µM
[10] = second compound 94.9 pM, first compound 1 µM
[11] = second compound 94.9 pM, first compound 3.16 µM
[12] = second compound 94.9 pM, first compound 10 µM
[13] = second compound 0.0003 µM, first compound 0.0316 µM
[14] = second compound 0.0003 µM, first compound 0.1 µM
[15] = second compound 0.0003 µM, first compound 0.316 µM
[16] = second compound 0.0003 µM, first compound 1 µM
[17] = second compound 0.0003 µM, first compound 3.16 µM
[18] = second compound 0.0003 µM, first compound 10 µM
[19] = second compound 0.000949 µM, first compound 0.0316 µM
[20] = second compound 0.000949 µM, first compound 0.1 µM
[21] = second compound 0.000949 µM, first compound 0.316 µM
[22] = second compound 0.000949 µM, first compound 1 µM
[23] = second compound 0.000949 µM, first compound 3.16 µM
[24] = second compound 0.000949 µM, first compound 10 µM
[25] = second compound 0.003 µM, first compound 0.0316 µM
[26] = second compound 0.003 µM, first compound 0.1 µM
[27] = second compound 0.003 µM, first compound 0.316 µM
[28] = second compound 0.003 µM, first compound 1 µM
[29] = second compound 0.003 µM, first compound 3.16 µM
[30] = second compound 0.003 µM, first compound 10 µM

Row | Compound | IC50 (second compound 30 pM) [µM] | IC50 (second compound 94.9 pM) [µM] | IC50 (second compound 0.0003 µM) [µM] | IC50 (second compound 0.000949 µM) [µM] | IC50 (second compound 0.003 µM) [µM] | viability, T/C [1] [%] | viability, T/C [2] [%] | viability, T/C [3] [%] | viability, T/C [4] [%] | viability, T/C [5] [%] | viability, T/C [6] [%] | viability, T/C [7] [%] | viability, T/C [8] [%] | viability, T/C [9] [%] | viability, T/C [10] [%] | viability, T/C [11] [%] | viability, T/C [12] [%] | viability, T/C [13] [%] | viability, T/C [14] [%] | viability, T/C [15] [%] | further results
1 | CC(C)n1c(=O)n(C)c2cnc3cc(F)c(-c4ccc(OCCCN5CCCCC5)nc4)cc3c21 + COc1cc2c(cc1O)CCNC21CSC2c3c(OC(C)=O)c(C)c4c(c3C(COC1=O)N1C(O)C3Cc5cc(C)c(OC)c(O)c5C(C21)N3C)OCO4 | > 10 | > 10 | > 10 | > 10 | < 0.0316 | 104 | 106 | 106 | 104 | 114 | 107 | 106 | 107 | 105 | 107 | 123 | 112 | 103 | 112 | 111 | viability, T/C [16]: 112%; viability, T/C [17]: 116%; viability, T/C [18]: 104%; viability, T/C [19]: 93.8%; viability, T/C [20]: 97.7%; viability, T/C [21]: 92.6%; viability, T/C [22]: 93.7%; viability, T/C [23]: 106%; viability, T/C [24]: 95.2%; viability, T/C [25]: 7%; viability, T/C [26]: 6.41%; viability, T/C [27]: 9.42%; viability, T/C [28]: 3.31%; viability, T/C [29]: 2.99%; viability, T/C [30]: 3.29%
2 | CC1COCCN1c1cc(-c2ccnn2C)c2ccnc(-c3ccn[nH]3)c2n1 (stereo not given) + COc1cc2c(cc1O)CCNC21CSC2c3c(OC(C)=O)c(C)c4c(c3C(COC1=O)N1C(O)C3Cc5cc(C)c(OC)c(O)c5C(C21)N3C)OCO4 | 4.19 | 3.43 | 2.5 | 0.711 | < 0.0316 | 90.5 | 74.5 | 67.2 | 56.7 | 51.8 | 46.3 | 89.1 | 73.8 | 67 | 58 | 50.8 | 44.5 | 81.8 | 67.1 | 64 | viability, T/C [16]: 59.2%; viability, T/C [17]: 45.9%; viability, T/C [18]: 42.5%; viability, T/C [19]: 72.2%; viability, T/C [20]: 64%; viability, T/C [21]: 56.3%; viability, T/C [22]: 51.7%; viability, T/C [23]: 31.9%; viability, T/C [24]: 32.6%; viability, T/C [25]: 9.26%; viability, T/C [26]: 6.28%; viability, T/C [27]: 10.1%; viability, T/C [28]: 3.62%; viability, T/C [29]: 0.78%; viability, T/C [30]: 0.39%
